{"source": "patent US20030171575A1", "about": "“Process for improving sucralose purity and yield” (priority 2002, published 2003)", "key": {"[1]": {"assay": "Blinded three-sample taste panel, model soft drink with 100 ppm sucralose (Example 3)", "format": "in vivo, panelists", "settings": "100 ppm sucralose in model soft drink (0.14% citric acid, 0.04% trisodium phosphate, pH 3.2), against samples without sucralose", "description": "Purified sucralose is prepared by the process of solvent-solvent extraction and sequential recrystallizations as shown in Examples 1 and 2 of the present invention. Next the taste of the resultant composition is tested in a beverage.\n(§1) Sucralose solutions are prepared by adding crystalline sucralose to a model soft drink composition that contains 0.14% citric acid and 0.04% trisodium phosphate. The pH of this composition is 3.2. Crystalline sucralose compositions are added to the soft drink composition to yield final levels of 100 parts per million (ppm).\n(§2) Panelists are selected from the general population, and no specific demographic parameters are utilized in recruiting the panelists. The product samples are prepared and served chilled. Portions are dispensed into individual servings for the panelists. Samples are presented to panelists in a blinded manner (samples are identified only by a random digit label). Each panelist receives three samples for tasting (one sample comprising 100 ppm sucralose and two samples not comprising sucralose), and panelists are given a randomized sequence in which to taste the samples. […]\nStatistical significance of the correctness of the scores (i.e. panelist ability to detect the sample that is different from the other two) is determined by use of a statistical table that correlates the number of correct responses with a p value."}, "[2]": {"assay": "Blinded paired palatability panel, consumer product such as ice cream with 150 ppm sucralose (Example 5)", "format": "in vivo, panelists", "settings": "150 ppm sucralose in consumer product such as ice cream, served chilled", "description": "Purified sucralose is prepared by the process of solvent-solvent extraction and sequential recrystallizations as shown in Examples 1 and 2 of the present invention. Next, sucralose is used to enhance the palatability of a consumer product.\nThe sucralose is added to one group (1G) of two groups (1G and 2G) of a consumer product such as ice cream to yield final levels of 150 ppm sucralose.\nPanelists are selected from the general population, and no specific demographic parameters are utilized in recruiting the panelists. The two groups of samples are prepared and served chilled. Portions are dispensed into individual servings for the panelists. Samples are presented to panelists in a blinded manner (samples are identified only by a random digit label). Each panelist receives two samples for tasting, and panelists are given a randomized sequence in which to taste the samples. Thus, the order of tasting is completely random. In each set of two samples, one sample is from G1 and the other sample is from G2. Panelists are asked to select the sample that tastes the most palatable, record that result and record how confident they are of the result. […]\nStatistical significance of the correctness of the scores (i.e., panelist ability to detect the most palatable sample) is determined by use of a statistical table that correlates the number of correct responses with a p value."}, "[3]": {"assay": "Blinded three-sample taste panel, model soft drink with 10 ppm sucralose (Example 7)", "format": "in vivo, panelists", "settings": "10 ppm sucralose in model soft drink (0.14% citric acid, 0.04% trisodium phosphate, pH 3.2)", "description": "Purified sucralose is prepared by the process of solvent—solvent extraction and sequential recrystallizations as shown in Examples 1 and 2 of the present invention. Next, the effect on palatability of a beverage by purified sucralose is tested.\nas §1, with “10 ppm sucralose.” for “100 parts per million (ppm).”\nA model soft drink composition without sucralose is also prepared.\nas §2, with “tasting,” for “tasting (one sample comprising 100 ppm sucralose and two samples not comprising sucralose),”\nStatistical significance of the correctness of the scores (i.e., panelist ability to detect the sample that is different from the other two) is determined by use of a statistical table that correlates the number of correct responses with a p value."}, "[4]": {"settings": "background statement; cited from earlier work"}}, "data": [{"smiles": "OC[C@H]1O[C@H](O[C@]2(CCl)O[C@H](CCl)[C@@H](O)[C@@H]2O)[C@H](O)[C@@H](O)[C@H]1Cl", "note": "[Sucralose, 4,1′,6′-trichloro-4,1′,6′-trideoxygalactosucrose]", "values": [{"measurement": "palatability of the odd sample (comments of panelists choosing the correct sample)", "setting": "[1]", "result": "increased palatability"}, {"measurement": "palatability against samples not comprising sucralose", "setting": "[2]", "result": "more palatable"}, {"measurement": "palatability against samples not comprising sucralose", "setting": "[3]", "result": "more palatable"}, {"measurement": "sweetness intensity compared with sucrose", "setting": "[4]", "result": "several hundred times"}]}]}
